Test results from US8247530B2, “N-alkylated cyclic peptide melanocortin agonists” (Palatin Technologies, Inc., priority 2005, dated 2012).
Where a SMILES comes first, the peptide text is derived from it. Bridges are numbered along the chain shown (N, C = ends). [ ]: non-standard residue; d: D form. 1Nal = N[C@@H](Cc1cccc2ccccc12)C(=O)O; Nle = CCCC[C@H](N)C(=O)O

How the values were obtained:
hMC3-R (HEK-293 cells) = molecular target: T1, hMC3-R (HEK-293 cells) (Homo sapiens, UniProt P41968); experiment: cAMP functional assay for agonist/antagonist status, MC3-R; format: cell-based; details: for EC50: cAMP accumulation; for agonist/antagonist status as to MC3-R: cAMP assay; for efficacy relative to NDP-α-MSH, MC3-R: cAMP response ratio to NDP-α-MSH
T1 construct: expressed in transfected cells; host or cells: HEK-293
T1 sequence (P41968 whole entry): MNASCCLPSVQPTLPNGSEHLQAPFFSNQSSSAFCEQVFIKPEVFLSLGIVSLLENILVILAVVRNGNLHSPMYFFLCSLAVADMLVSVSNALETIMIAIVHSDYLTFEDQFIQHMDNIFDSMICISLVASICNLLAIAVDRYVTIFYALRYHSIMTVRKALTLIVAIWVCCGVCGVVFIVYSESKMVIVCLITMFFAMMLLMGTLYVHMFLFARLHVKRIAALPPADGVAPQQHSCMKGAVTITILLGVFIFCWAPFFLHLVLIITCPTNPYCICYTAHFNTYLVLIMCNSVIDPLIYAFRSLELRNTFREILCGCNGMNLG
Method: (§1) Functional evaluation of peptides at melanocortin receptors was performed by measuring the accumulation of intracellular cAMP in HEK-293 cells expressing hMC3-R, hMC4-R or hMC5-R, and in B-16 mouse melanoma cells expressing MC1-R. Cells suspended in Earle's Balanced Salt Solution containing 10 mM HEPES (pH 7.5), 5 mM MgCl2, 1 mM glutamine, 0.5% albumin and 0.3 mM 3-isobutyl-1-methyl-xanthine, a phosphodiesterase inhibitor, were plated in 96 well plates at a density of 0.5×10^5 cells per well. Cells were incubated with the test peptides in the presence or absence of NDP-α-MSH for 1 hour at 37° C. cAMP levels in the cell lysates were measured using an EIA kit (Amersham). Data analysis and EC50 values were determined using nonlinear regression analysis with Prism Graph-Pad software.
(§2) The agonist/antagonist status with respect to MC1-R, MC4-R and MC5-R of certain peptides of the invention was determined. Antagonistic activity was determined by measuring the inhibition of α-MSH-induced or NDP-α-MSH-induced cAMP levels following exposure to the peptides as in the preceding descriptions.

[1] = molecular target: T2, MC1-R (B-16 mouse melanoma cells) (Mus musculus, UniProt Q01727); experiment: Competitive inhibition binding assay using [I125]-NDP-α-MSH, MC1-R; details: radioligand [I125]-NDP-α-MSH, B-16 mouse melanoma membranes
T2 construct: B-16 mouse melanoma cells (containing MC1-R); endogenous in cells; host or cells: B-16 mouse melanoma cells
T2 sequence (Q01727 whole entry): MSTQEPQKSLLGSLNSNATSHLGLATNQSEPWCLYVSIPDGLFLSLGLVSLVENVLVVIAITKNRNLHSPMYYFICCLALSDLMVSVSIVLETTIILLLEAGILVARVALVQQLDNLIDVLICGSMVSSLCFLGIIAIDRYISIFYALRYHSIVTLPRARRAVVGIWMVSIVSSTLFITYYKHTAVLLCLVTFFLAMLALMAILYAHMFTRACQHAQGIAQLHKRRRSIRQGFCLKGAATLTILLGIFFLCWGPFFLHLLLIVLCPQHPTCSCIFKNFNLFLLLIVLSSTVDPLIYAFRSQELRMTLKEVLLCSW
Method: The assay mixture was incubated for 60 minutes at 37° C., then filtered and the membranes washed three times with ice cold phosphate buffered saline. The filter was dried and counted in a gamma counter for remaining radioactivity bound to the membranes. […] Each assay was conducted in triplicate.

MC4-R [2] = molecular target: T3, MC4-R (Homo sapiens, UniProt P32245); experiment: Competitive inhibition binding assay using [I125]-NDP-α-MSH, hMC4-R; details: radioligand [I125]-NDP-α-MSH, HEK-293 membranes; read-out: Ki (NDP-α-MSH) MC4-R
T3 construct: expressed in transfected cells; host or cells: HEK-293
T3 sequence (P32245 whole entry): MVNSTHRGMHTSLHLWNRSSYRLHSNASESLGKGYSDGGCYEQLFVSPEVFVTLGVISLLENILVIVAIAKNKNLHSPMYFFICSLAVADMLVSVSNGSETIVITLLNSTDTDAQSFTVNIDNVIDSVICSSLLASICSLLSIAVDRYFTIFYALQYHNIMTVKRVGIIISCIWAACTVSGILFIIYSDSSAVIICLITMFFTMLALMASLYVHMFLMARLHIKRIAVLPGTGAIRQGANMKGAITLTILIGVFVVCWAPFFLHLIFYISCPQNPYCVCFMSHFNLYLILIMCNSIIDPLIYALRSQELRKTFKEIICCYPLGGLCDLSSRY
Method: (§3) The assay tube also contained a chosen concentration of the test peptide of this invention, typically a 1 μM concentration, for determining its efficacy in inhibiting the binding of [I^125]NDP-α-MSH to the receptor.
(§4) The assay mixture was incubated for 60 minutes at 37° C., then filtered and the membranes washed three times with ice cold phosphate buffered saline. The filter was dried and counted in a gamma counter for remaining radioactivity bound to the membranes. 100% specific binding was defined as the difference in radioactivity (cpm) bound to cell membranes in the absence and presence of 1 μM NDP-α-MSH. […] Each assay was conducted in triplicate. The Ki (nM) of certain peptides of the invention were determined using similar assay protocols and testing peptides over a wider dose range.

hMC4-R (HEK-293 cells) = molecular target: T4, hMC4-R (HEK-293 cells) (Homo sapiens, UniProt P32245); experiment: cAMP functional assay for agonist/antagonist status, MC4-R; format: cell-based; details: for EC50: cAMP accumulation; for agonist/antagonist status as to MC4-R: cAMP assay; for efficacy relative to NDP-α-MSH, MC4-R: cAMP response ratio to NDP-α-MSH
T4 construct: expressed in transfected cells; host or cells: HEK-293
T4 sequence (P32245 whole entry): as above
Method: as §1, §2
Evaluation of the molecules to elicit a functional response in HEK-293 cells expressing hMC4-R for agonistic activity was done by measuring the accumulation of intracellular cAMP following treatment. Confluent HEK-293 cells over-expressing MC4-R receptors were detached by enzyme free cell suspension buffer. Cells were suspended in Earle's Balanced Salt Solution containing 10 mM HEPES (pH 7.5), 1 mM MgCl2, 1 mM glutamine, 0.5% albumin and 0.3 mM 3-isobutyl-1-methyl-[…]. The cells were plated in a 96 well plate at a density of 0.5×10^5 cells per well and pre-incubated for 60 minutes. The cells were then challenged with the test peptides dissolved in dimethylsulfoxide (DMSO) at a concentration range of 0.05-5000 nM in a total assay volume of 200 μL for 1 hour at 37° C. The concentration of DMSO was held at 1% in the assay mixture. NDP-α-MSH was used as the reference agonist. At the end of the incubation period the cells were disrupted by the addition of 50 μL lysis buffer from the cAMP EIA kit (Amersham). Complete rupture of the cells was ensured by pipetting the cells. cAMP levels in the cell lysates were measured after appropriate dilution using the EIA kit (Amersham) method. Data analysis and EC50 values were determined by using nonlinear regression analysis with the Prism Graph-Pad software.

hMC5-R = molecular target: T5, hMC5-R (Homo sapiens, UniProt P33032); experiment: Competitive inhibition binding assay using [I125]-NDP-α-MSH, hMC5-R; details: radioligand [I125]-NDP-α-MSH, HEK-293 membranes; read-out: Ki (NDP-α-MSH) MC5-R
T5 construct: expressed in transfected cells; host or cells: HEK-293
T5 sequence (P33032 whole entry): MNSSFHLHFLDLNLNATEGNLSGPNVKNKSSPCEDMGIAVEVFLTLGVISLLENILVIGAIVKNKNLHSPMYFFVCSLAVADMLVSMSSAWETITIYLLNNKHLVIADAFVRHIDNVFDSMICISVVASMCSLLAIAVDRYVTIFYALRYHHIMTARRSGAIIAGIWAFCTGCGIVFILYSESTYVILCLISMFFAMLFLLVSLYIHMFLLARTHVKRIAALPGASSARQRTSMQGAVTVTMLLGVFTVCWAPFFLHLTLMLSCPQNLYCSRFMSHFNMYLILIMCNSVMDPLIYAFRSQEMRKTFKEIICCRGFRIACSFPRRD
Method: as §3, §4

male Sprague-Dawley rats = experiment: Penile erection induction in male rats; format: in vivo, rat; details: 1000 μg/kg IV, groups of 6 rats, one hour observation
Method: The ability of peptides to induce penile erection (PE) in male rats was evaluated with selected peptides. Male Sprague-Dawley rats weighing 200-250 g were kept on a 12 hour on/off light cycle with food and water ad libitum. All behavioral studies were performed between 10 a.m. and 5 p.m. Groups of 4-8 rats were administered peptides at a variety of doses via an intravenous (IV) route, and may alternatively be administered peptide by an intracerebroventricular (ICV) route. Immediately after treatment, rats were placed into individual polystyrene cages (27 cm long, 16 cm wide, and 25 cm high) for behavioral observation. […] For rats administered peptide by an ICV routes, rats are observed for two hours.
Selected peptides were tested as in Example 5. Peptide was administered by IV routes, and used at dose levels ranging from 1 μg/kg to 1000 μg/kg.

MC3-R [3] = molecular target: T6, MC3-R (Homo sapiens, UniProt P41968); experiment: Competitive inhibition binding assay using [I125]-NDP-α-MSH, hMC3-R; details: radioligand [I125]-NDP-α-MSH, HEK-293 membranes; read-out: Ki (NDP-α-MSH) MC3-R
T6 construct: expressed in transfected cells; host or cells: HEK-293
T6 sequence (P41968 whole entry): as the sequence (P41968 whole entry) above
Method: as §3, §4

MC4-R [4] = molecular target: T3, MC4-R; experiment: Competitive inhibition Ki (AgRP), MC4-R; format: binding; details: AgRP as competing ligand
[5] = molecular target: T2, MC1-R (B-16 mouse melanoma cells); experiment: cAMP functional assay for agonist/antagonist status, MC1-R; format: cell-based; details: for EC50: cAMP accumulation; for agonist/antagonist status as to MC1-R: cAMP assay; for efficacy relative to NDP-α-MSH, MC1-R: cAMP response ratio to NDP-α-MSH
Method: Data analysis and EC50 values were determined using nonlinear regression analysis with Prism Graph-Pad software.
The agonist/antagonist status with respect to MC1-R, MC4-R and MC5-R of certain peptides of the invention was determined.

MC3-R [6] = molecular target: T6, MC3-R; experiment: Competitive inhibition Ki (AgRP), MC3-R; format: binding; details: AgRP as competing ligand
Method: as §4

SMILES	EC50 (hMC3-R (HEK-293 cells))	agonist/antagonist status as to MC3-R (hMC3-R (HEK-293 cells))	efficacy relative to NDP-α-MSH, MC3-R (hMC3-R (HEK-293 cells))	Ki [1]	Ki (MC4-R [2])	EC50 (hMC4-R (HEK-293 cells))	agonist/antagonist status as to MC4-R (hMC4-R (HEK-293 cells))	efficacy relative to NDP-α-MSH, MC4-R (hMC4-R (HEK-293 cells))	Ki (hMC5-R)	rats exhibiting at least one PE (male Sprague-Dawley rats)	Ki (MC3-R [3])	Ki (MC4-R [4])	EC50 [5]	agonist/antagonist status as to MC1-R [5]	efficacy relative to NDP-α-MSH, MC1-R [5]	Ki (MC3-R [6])
CC(=O)N[C@H]1CC(=O)NCCCC[C@@H](C(=O)N(C)C)NC(=O)[C@H](Cc2c[nH]c3ccccc23)NC(=O)[C@H](CCCNC(=N)N)NC(=O)[C@@H](Cc2ccccc2)NC(=O)[C@H](Cc2c[nH]cn2)NC1=O [Example 13, Ac-cyclo(-Asp-His-D-Phe-Arg-Trp-Lys)-N(CH3)2]	1250 nM	agonist (response ratio compared to NDP-α-MSH of 0.7 and above were classified as full agonists)	1.3	2 nM	12 nM	5 nM	partial agonist (Peptides with a ratio from 0.1 to 0.7 were classified as partial agonists)	0.6	> 1000 nM	100%	154 nM	18 nM	151 nM	agonist (response ratio compared to NDP-α-MSH of 0.7 and above were classified as full agonists)	0.7	
CCNC(=O)[C@@H]1CCCCNC(=O)C[C@H](NC(C)=O)C(=O)N[C@@H](Cc2c[nH]c3ccccc23)C(=O)N[C@H](Cc2ccccc2)C(=O)N[C@@H](CCCNC(=N)N)C(=O)N[C@@H](Cc2cccc3ccccc23)C(=O)N1 [Example 14, Ac-cyclo(-Asp-Trp-D-Phe-Arg-Nal 1-Lys)-NH—CH2—CH3] (Ac-DW[dF]R[1Nal]K-NHEt; lactam 1-6 (inferred))		inactive		166 nM	45 nM	698 nM	agonist (response ratio compared to NDP-α-MSH of 0.7 and above were classified as full agonists)	0.7	> 2000 nM		886 nM	71 nM		inactive		> 10000 nM
CC(=O)N[C@H]1CC(=O)NCCCC[C@@H](C(=O)N(C)C)NC(=O)[C@H](Cc2cccc3ccccc23)NC(=O)[C@H](CCCNC(=N)N)NC(=O)[C@@H](Cc2ccccc2)NC(=O)[C@H](Cc2c[nH]c3ccccc23)NC1=O [Example 15, Ac-cyclo(-Asp-Trp-D-Phe-Arg-Nal 1-Lys)-N(CH3)2] (Ac-DW[dF]R[1Nal]K-NMe2; lactam 1-6 (inferred))		inactive		215 nM	122 nM	1540 nM	agonist (response ratio compared to NDP-α-MSH of 0.7 and above were classified as full agonists)	0.9	549 nM		964 nM	233 nM		inactive		> 3000 nM
CCNC(=O)[C@@H]1CCCCNC(=O)C[C@H](NC(C)=O)C(=O)N[C@@H](Cc2c[nH]cn2)C(=O)N[C@H](Cc2ccccc2)C(=O)N[C@@H](CCCNC(=N)N)C(=O)N[C@@H](Cc2cccc3ccccc23)C(=O)N1 [Example 16, Ac-cyclo(-Asp-His-D-Phe-Arg-Nal 1-Lys)-NH—CH2—CH3] (Ac-DH[dF]R[1Nal]K-NHEt; lactam 1-6 (inferred))	6210 nM	agonist (response ratio compared to NDP-α-MSH of 0.7 and above were classified as full agonists)	0.8	18 nM	157 nM	500 nM	agonist (response ratio compared to NDP-α-MSH of 0.7 and above were classified as full agonists)	1.1	937 nM		462 nM	284 nM	6410 nM	agonist (response ratio compared to NDP-α-MSH of 0.7 and above were classified as full agonists)	0.9	> 2000 nM
CC(=O)N[C@H]1CC(=O)NCCCC[C@@H](C(=O)N(C)C)NC(=O)[C@H](Cc2cccc3ccccc23)NC(=O)[C@H](CCCNC(=N)N)NC(=O)[C@@H](Cc2ccccc2)NC(=O)[C@H](Cc2c[nH]cn2)NC1=O [Example 17, Ac-cyclo(-Asp-His-D-Phe-Arg-Nal 1-Lys)-N(CH3)2] (Ac-DH[dF]R[1Nal]K-NMe2; lactam 1-6 (inferred))	> 1000 nM	partial agonist (Peptides with a ratio from 0.1 to 0.7 were classified as partial agonists)	0.4	40 nM	92 nM	91 nM	agonist (response ratio compared to NDP-α-MSH of 0.7 and above were classified as full agonists)	0.93	> 10000 nM	100%	> 10000 nM		2360 nM	agonist (response ratio compared to NDP-α-MSH of 0.7 and above were classified as full agonists)	1.0	
CCCC[C@H](NC(C)=O)C(=O)N[C@H]1CC(=O)NCCCC[C@@H](C(=O)NCC)NC(=O)[C@H](Cc2cccc3ccccc23)NC(=O)[C@H](CCCNC(=N)N)NC(=O)[C@@H](Cc2ccccc2)NC(=O)[C@H](Cc2c[nH]c3ccccc23)NC1=O [Example 18, Ac-Nle-cyclo(-Asp-Trp-D-Phe-Arg-Nal 1-Lys)-NH—CH2—CH3] (Ac-[Nle]DW[dF]R[1Nal]K-NHEt; lactam 2-7 (inferred))	1820 nM	partial agonist (Peptides with a ratio from 0.1 to 0.7 were classified as partial agonists)	0.2	3 nM			partial agonist (Peptides with a ratio from 0.1 to 0.7 were classified as partial agonists)	0.6				26 nM	397 nM	partial agonist (Peptides with a ratio from 0.1 to 0.7 were classified as partial agonists)	0.3	
